In patent US20200316090A1, “TARGETED THERAPEUTICS” (MADRIGAL PHARMACEUTICALS, INC., priority 2012, published 2020):
Read-outs that look alike come from different tables or passages of the source.

Assays:
[1] = Tissue distribution of SDC-TRAP and degradation products in tumor-bearing mice (plasma, tumor, heart); format: in vivo, Female SCID Mouse (H1975); details: for Kp: read-out: Tumor/Plasma Ratio
Experimental: A 150 ng/mL solution of SDC-TRAP-0002 in methanol was prepared using an internal spiking solution (500 μg/mL SDC-TRAP-0002 in DMSO). Using the 10 mM stock solutions of the SDC-TRAP molecule and its Hsp90i binding moiety and effector moiety in DMSO, spiking solutions were prepared at 0.025, 0.05, 0.1, 0.5, 1, 5, 10, 50, 100, 250, and 500 μM in DMSO. 5 μL of each spiking solution was added to a 96-deep well plate.
Quality control standards were prepared from 5 μL of 0.1, 1, and 10 μM calibration standard spiking solution added in triplicate into 96-deep well plate and adding 50 μL of matrix (plasma or homogenized tumor).
To prepare test samples, test plasma was diluted as needed using blank plasma. Tumor samples were pulverized in liquid nitrogen, weighed, and homogenized in PBS at 5× volume to sample weight. 50 μL of unknown plasma or homogenized tumor sample was mixed with 5 μL of DMSO. The samples were extracted by precipitating calibration standards, QC standards, and unknown samples with 200 μL of internal standard solution. The samples were mixed by vortex at room temperature for approximately 1.5 minutes, then centrifuge at 2-8° C. 150 μL of supernatant was collected and 25 μL of water added. Samples were mixed and analyzed by LC-MS/MS.
Samples of plasma, heart and tumor were excised from a euthanized mouse, homogenized in PBS at 5 times tissue weight and diluted in 5 μL DMSO/50 μL sample. Prior to analysis, 55 μL samples and calibration standards were precipitated in 200 μL methanol in 96-well plates. Samples were mixed on a vortex mixer for 1.5 minutes at 1500 rpm at room temperature, then centrifuged at 4400 rpm for 10 minutes at 8° C. 150 μL of each supernatant was transferred to a well of a new 96-well plate, and 25 μL of water was added and mixed with the sample. […] For the analysis of samples from female SCID mice, a gradient of solvent A (water/0.1% formic acid) and B (acetonitrile/0.1% formic acid) was used as in Table A below.

[2] = Artificial membrane permeability assay (PAMPA)
Experimental: In order to test the ability SDC-TRAP molecules of the invention to enter cells, an artificial membrane permeability assay (“PAMPA”) was used. […] LC/MS was used in conjunction with PAMPA assays to determine the ability of the SDC-TRAP molecules of the invention to permeate cells.
Pre-coated PAMPA plates were warmed to room temperature for at least 30 minutes prior to adding assay components.
Stock solutions were prepared with the SDC-TRAP molecules to be tested. In order to make a working solution, either 50 μL of 100 μM Stock in DMSO+950 μL of PBS or 50 μL of 200 stock was added to 96 deep well plate, resulting in a 5 μM final concentration or a 10 μM final concentration, respectively. […] 200 μL of PBS was added into the corresponding wells of an acceptor PAMPA plates.
The acceptor plate was lowered onto the donor plate and allowed to incubate for five hours. After five hours, a 50 μL aliquot was removed from each well of each plate and added into a new 96 deep-well plate.
100 μL of methanol containing an internal standard was added to each aliquot and analyzed by LC/MS. The internal standard was 150 ng/ml SDC-TRAP-0002.
In order to calculate the permeability for each SDC-TRAP molecule and the control molecules, the following formula was used:
Permeability (in Unit of Cm/s):
[formula] • C0=initial compound concentration in donor well (mM) • CD (t)=compound concentration in donor well at time t. (mM) • CA (t)=compound concentration in acceptor well at time t. (mM) • VD=donor well volume=0.3 mL • VA=acceptor well volume=0.2 mL • A=filter area=0.3 cm^2 • t=incubation time=18000 s (5 h)
For the data presented in the table below, peak area was used in place of concentration in the formula above.

[3] = Permeability (10^−6 cm/s), 5 h incubation, peak area used in place of concentration, first table
[4] = Permeability (cm/s), 5 h incubation, peak area used in place of concentration, first table

SMILES | Mass Retention (%) ([2]; 5 h incubation, first table) | Papp at 5 h [2, 3] | Papp at 5 h [2, 4] | Mass Retention (%) ([2]; same protocol, second table) | other results
Nc1cccc2c1CN(C1CCC(=O)NC1=O)C2=O (stereo not drawn) [Lenalidomide, lenalidomide, reference compound] | 26.0% | 0.062 ×10⁻⁶ cm/s | 0.062 ×10⁻⁶ cm/s |  | Kp at 1 h ([1]; female, SCID, mouse, in vivo): 11.9; Kp at […] ([1]; female, SCID, mouse, in vivo): 0.449
CCc1c2c(nc3ccc(O)cc13)-c1cc3c(c(=O)n1C2)COC(=O)[C@@]3(CC)OC(=O)N1CCC(CCn2ccc3cc(-n4c(O)nnc4-c4cc(C(C)C)c(O)cc4O)ccc32)CC1 [SDC-TRAP-0064, (S)-4,11-diethyl-9-hydroxy-3,14-dioxo-3,4,12,14-tetrahydro-1H-pyrano[3′,4′:6,7]indolizino[1,2-b]quinolin-4-yl 4-(2-(5-(3-(2,4-dihydroxy-5-isopropylphenyl)-5-hydroxy-4H-1,2,4-triazol-4-yl)-1H-indol-1-yl)ethyl)piperidine-1-carboxylate] |  |  |  | 48.4% | 
CC(C)c1cc(-c2nnc(O)n2-c2ccc3c(ccn3CCOCCNC(=O)CCn3cc(F)c(=O)[nH]c3=O)c2)c(O)cc1O [SDC-TRAP-0048, N-(2-(2-(5-(3-(2,4-dihydroxy-5-isopropylphenyl)-5-hydroxy-4H-1,2,4-triazol-4-yl)-1H-indol-1-yl)ethoxy)ethyl)-3-(5-fluoro-2,4-dioxo-3,4-dihydropyrimidin-1 (2H)-yl)propanamide] | 10.8% | 0.0283 ×10⁻⁶ cm/s | 0.0283 ×10⁻⁶ cm/s |  | 
CCNC(=O)c1nnc(-c2cc(C(C)C)c(O)cc2O)n1-c1ccc(Oc2ccc(C(=O)N3CCC(C(=O)OC4(CC)C(=O)OCc5c4cc4n(c5=O)Cc5c-4nc4ccc(O)cc4c5CC)CC3)cc2)cc1 (stereo not drawn) [SDC-TRAP-0154, 4,11-Diethyl-9-hydroxy-3,14-dioxo-3,4,12,14-tetrahydro-1H-pyrano[3′,4′:6,7]indolizino[1,2-b]quinolin-4-yl 1-(4-(4-(3-(2,4-dihydroxy-5-isopropylphenyl)-5-(ethylcarbamoyl)-4H-1,2,4-triazol-4-yl)phenoxy)benzoyl)piperidine-4-carboxylate] |  |  |  | 10.3% | Kp ([1]; female, SCID, mouse, in vivo, tissue distribution of SDC-TRAP-0154, 6 h): 0.44; Kp ([1]; female, SCID, mouse, in vivo, tissue distribution of SDC-TRAP-0154, 24 h): 2.68; Kp ([1]; female, SCID, mouse, in vivo, tissue distribution of SDC-TRAP-0154, 48 h): 26.8; Plasma Conc. ([1]; tissue distribution of SDC-TRAP-0154, 1 h): 215 µM; Tumor Conc. ([1]; tissue distribution of SDC-TRAP-0154, 24 h): 0.115 nmol/g of tissue; Tumor Conc. ([1]; tissue distribution of SDC-TRAP-0154, 48 h): 0.0921 nmol/g of tissue
CCNC(=O)c1nnc(-c2cc(C(C)C)c(O)cc2O)n1-c1ccc2c(ccn2CCC2CCN(C(=O)Oc3ccc4nc5c(c(CC)c4c3)Cn3c-5cc4c(c3=O)COC(=O)[C@]4(O)CC)CC2)c1 [SDC-TRAP-0205, (S)-4,11-diethyl-4-hydroxy-3,14-dioxo-3,4,12,14-tetrahydro-1H-pyrano[3′,4′:6,7]indolizino[1,2-b]quinolin-9-yl 4-(2-(5-(3-(2,4-dihydroxy-5-isopropylphenyl)-5-(ethylcarbamoyl)-4H-1,2,4-triazol-4-yl)-1H-indol-1-yl)ethyl)piperidine-1-carboxylate] |  |  |  | 10.9% | 
CCc1c2c(nc3ccc(OC(=O)N4CCC[C@H]4C(=O)N4CCC(CCn5ccc6cc(-n7c(O)nnc7-c7cc(C(C)C)c(O)cc7O)ccc65)CC4)cc13)-c1cc3c(c(=O)n1C2)COC(=O)[C@]3(O)CC [SDC-TRAP-0210] | 34.8% |  |  | 72.2% | Papp at 5 h [2]: 0.00899 ×10⁻⁶ cm/s; Permeability (10^−6 cm/s) ([2]; same protocol, second table): 0.00899 10^−6 cm/s
